According to EPA's ToxValDB 9.5 (doi:10.2903/j.efsa.2009.296r):
Converted amounts (≈) assume the structure as drawn.

Tests used:
[1] = reproductive; oral; feed; reproduction
Oncorhynchus mykiss = details: chronic/long-term; duration: 28 days
Apis mellifera = details: acute, duration: 48 hours, mortality
Salmo trutta ssp. fario = details: acute; duration: 96 hours; mortality
Coturnix coturnix = details: oral
Daphnia magna = details: chronic/long-term; duration: 21 days
Oryctolagus sp. = details: developmental; development
Mus musculus = details: acute; oral; mortality
Anas platyrhynchos = details: oral

**Q.** For `O=C1C2CC=CCC2C(=O)N1SC(Cl)(Cl)Cl` (stereo not drawn) [Captan], which NOAEL [1] is on record?
**A.** 100 mg/kg-day

**Q.** What about the NOEC (Oncorhynchus mykiss) of the same compound?
**A.** 0.199 mg/L

**Q.** And the LC50 (Apis mellifera; dermal)?
**A.** > 200 µg/piece

**Q.** What about the LD50 (Apis mellifera; oral, unspecified) of the same compound?
**A.** > 100 µg/piece

**Q.** And the LC50 (Tagia sp.; acute, duration: 14 days, mortality)?
**A.** > 519 mg/kg

**Q.** What about the NOEC (Tagia sp.; chronic/long-term, duration: 8 weeks, reproduction) of the same compound?
**A.** 11.6 mg/kg

**Q.** And the LC50 (Salmo trutta ssp. fario)?
**A.** 0.098 µg/mL (≈ 0.326 µM)

**Q.** What about the LC50 (Coturnix coturnix; acute, diet, mortality) of the same compound?
**A.** > 800 mg/kg-day

**Q.** And the LD50 (Coturnix coturnix; acute, mortality)?
**A.** > 2000 mg/kg

**Q.** And the NOEC (Coturnix coturnix; reproduction developmental, no effects)?
**A.** 83.2 mg/kg-day

**Q.** What about the LD50 (Rattus norvegicus; acute, oral, mortality) of the same compound?
**A.** > 2000 mg/kg

**Q.** And the NOAEL (Rattus norvegicus; developmental, development)?
**A.** 10 mg/kg-day

**Q.** And the NOEC (Daphnia magna)?
**A.** 0.56 mg/L

**Q.** And the NOAEL (Oryctolagus sp.)?
**A.** 30 mg/kg-day

**Q.** What about the LD50 (Mus musculus) of the same compound?
**A.** > 2000 mg/kg

**Q.** And the LD50 (Anas platyrhynchos; acute, unspecified, mortality)?
**A.** > 2000 mg/kg

**Q.** And the NOEC (Anas platyrhynchos; reproductive, unspecified, no effects)?
**A.** 74.4 mg/kg-day

**Q.** And the LC50 (Anas platyrhynchos; short-term, feed, mortality)?
**A.** > 1040 mg/kg-day
